Assay results published in US7834019B2, “Substituted pyrazolo[3,4-d]pyrimidinone derivatives” (Banyu Pharmaceutical Co., Ltd., priority 2006, dated 2010).

Test system: Human colon cancer cells (WiDr)
Test: Checkpoint escape effect in WiDr cells + gemcitabine (phosphorylated histone H3-positive cells)
Format: cell-based
Conditions: gemcitabine 100 nM for 24 hours, then test compound with nocodazole for 8 hours
Description: Pharmaceutical Text 3 (Method of Determining Drug Potency in Cells (Checkpoint-Removing Effect))
Fetal bovine serum (FBS) was obtained from Morgate; DMEM was from Invitrogen; gemcitabine was from Nippon Eli Lilly; nocodazole and 4′,6-diamidino-2-phenylindole were from Sigma; rabbit anti-phosphorylated histone H3 antibody was from Upstate; and fluorescence-labeled (Alexa Fluor 488) anti-rabbit IgG antibody was from Molecular Probe.
Human colon cancer cells (WiDr) were obtained from American Type Culture Collection (ATCC).
The cells were suspended in DMEM containing 10% FBS, and the cell suspension was applied to a poly-D-lysine-coated 96-well plastic plate (bought from Becton Dickinson) in an amount of 2000 cells/100 μL/well, in which the cells were incubated overnight in 5% CO2-95% air at 37° C. […] Next, this was washed with PBS, and a solution containing 4′,6-diamidino-2-phenylindole that had been diluted with 1% BSA/PBS to have a concentration 10 μg/mL and a fluorescence-labeled (Alexa Fluor 488) anti-rabbit IgG antibody that had been diluted 250-fold was added to it in an amount 50 μL/well, and reacted in a dark place at room temperature for 60 minutes. Finally, this was washed with PBS, and its fluorescence intensity was determined to calculate the ratio of the phosphorylated histone H3-positive cells (cells that had been in a cell division cycle through removal of checkpoint). […]

Work on `C=CCn1c(=O)c2cnc(Nc3ccc(N4CCN(C)CC4)cc3)nc2n1-c1cccc(C(C)(C)O)n1` [Example 53, 2-allyl-1-[6-(1-hydroxy-1-methylethyl)pyridin-2-yl]-6-{[4-(4-methylpiperazin-1-yl)phenyl]amino}-1,2-dihydro-3H-pyrazolo[3,4-d]pyrimidin-3-one] yielded an EC50 of 210 nM.
